# Key:
# TC-1 tumour = TC-1 tumour model, IDO-Pep1 with 1-MT (Example 9); type: in vivo, C57BL/6 mice; conditions: 1-MT 2 mg/ml in drinking water; IDO-Pep1 100 μg/mouse s.c.
# Protocol: The efficacy of the vaccines was assessed by overall survival.
# 4-6 week-old C57BL/6 mice were injected with 70,000 cell/ mouse of TC-1 cells. Treatment in respective groups was started when tumour reached an average size of approximately 0.075 cm^3 (approx. 10 days after tumour inoculation). For vaccination mouse IDO epitope, IDO-Pep1 was used. Mice were vaccinated subcutaneously with IDO Pep-1 at a dosage of 100 μg/mouse in combination with a Pan-HLADR-binding epitope (PADRE; aK-Cha-[sequence]a, 20 μg/mouse) and QuilA (10 μg/mouse). Mice were vaccinated two-three times with one-week interval, and the efficacy of the peptide vaccines was assessed by measuring tumour volume and/or survival. A group of mice were treated with 1-methyl tryptophan (1-MT) given in drinking water (2 mg/ml) for the duration of the study, and additional group of mice were treated with both IDO-Pep1 and 1-MT.
# THP-1 cells [1] = experiment: 51Cr-release assay, PBMC killing of THP-1 (Example 4); type: cell-based; conditions: peptide 0.1 μM, day 17, range of E/T ratios
# Protocol: (§1) Buffycoats were thawed (day 0), washed twice, resuspended in medium, counted and plated into wells as set out in Table Z4. THP-1 cells were irradiated with 30 GY and washed twice in medium. THP-1 cells were counted and added to PBMC containing wells as set out in Table Z4 (total volume 2 ml). Plates were placed in an incubator at 37 degrees. On days 7 and 14, 1 ml supernatant/well was removed. Cells were harvested and analyzed for cytotoxic activity on day 17. A standard ^51Cr-release assay was used to measure the cytotoxic potential of the peptide treated PBMCs. ^51Cr labeled THP-1 cells were used as target cells and peptide treated PBMCs as effector cells. Triton-X treated wells was used as maximum measurable lysis and medium alone as minimum lysis.
# % Specific lysis=((cpmsample−cpmminimum)/(cpmmaximum−cpmminimum))×100%
# THP-1 cells [2] = experiment: 51Cr-release assay, PBMC killing of THP-1 (Example 5); type: cell-based; conditions: peptide 0.1 μM
# Protocol: as §1, with “Z5.” for “Z4.”, “Z5” for “Z4”, “day 7,” for “days 7 and 14,”, “removed. Fresh irradiated THP-1 cells were prepared and counted as above and 1 ml added to the wells as shown in Table Z5” for “removed.”, “23.” for “17.”
# % specific lysis=((CPMsample−cpmminimum)/(cpmmaximum−cpmminimum))×100%
# PBMC = experiment: Direct IFN-γ ELISpot of patient PBMC stimulated with IO102 peptide; type: cell-based, human; conditions: patient PBMC at baseline, 5 μM peptide
# CMV-specific CD8 T cells = experiment: Boost effect on CMV peptide-induced stimulation of T cells (tetramer staining, Example 2); type: cell-based; conditions: peptide added to CMV stimulated cell cultures, day 15
# Protocol: Day 1: • Buffy coat samples were thawed, washed twice, resuspended in medium. Cells were counted. • Cells were then added to the wells of cell culture plates at 5×10^6/0.5 ml in X-VIVO+5% HS • Wells were stimulated with CMV peptide for 2 hours at room temperature. The CMV peptide used was HCMV pp65 495-504 ([…]). • After 2 hours IDO5, IO102 or an irrelevant HIV peptide used as control were added according to Table X and plates incubated for additional 2 hours at room temperature. • Added 1500 microL X-VIVO/5% HS to each well and placed plates in an incubator at 37° C.
# Day 2 and 9: • IL2 was added ([…]
# Day 8: • Wells were restimulated with IDO5, IO102 or HIV peptides, added according to table X before incubation for 2 hours at room temperature. • After restimulation the contents of each well were split in two and 1.5 ml X-VIVO+5% HS/well was added. • Plates were placed in an incubator at 37° C.
# Day 15: • Cells were harvested and analysed by flow cytometry. • The percentage of CMV-specific CD8 T cells in each well was identified by using a CD8 monoclonal antibody (mAb) as well as the tetramer complexes HLA-A2/CMV pp65 495-504. • As control, cells were in addition stained with the tetramer complex HLA-A2/HIV-1 po1476-484 and CD8 mAb (data not shown).
# [3] = system: IDO-specific T cell cultures; experiment: Intracellular cytokine staining of IO102 stimulated T-cell cultures; type: cell-based, human; conditions: after four weeks of in vitro IO102 stimulation, patients #02, #05, #07
# Protocol: PBMCs were stimulated with IO102 peptide in X-vivo 15 with 5% human AB serum and 120 U/ml IL2 (Novartis, Denmark) in 24 well plates (Nunc, Fischer Scientific). Initially, 20 μM peptide was used, and the cultures were re-stimulated every 7 days with a log10 decreased concentration of peptide for every week. Cell-cultures were supplemented with new IL2 every 7-10 days. Cells were kept at a concentration of 3-4×10^6/well.
# For enrichment and expansion of the IDO-specific T cells, cultured cells were restimulated, after four weeks of culture, with 20 μM peptide and enriched with the TNF-α Secretion Assay (Miltenyi Biotec) according to the manufacturer's instructions. Cells were peptide stimulated 2.5 hours before staining with the primary antibody. Enriched cells were expanded in a modified rapid expansion protocol (see below).
# T cells enriched for IDO-reactivity were expanded, and approximately 1-2×10^5 cells were used initially. […] Cultures were regularly assessed with regard to cell-numbers and colour of the media, and transferred to T80 or T175 flasks in addition to adding new media if appropriate. Cells were harvested after total 14 days of culture and either analyzed directly or cryopreserved in […] AB serum and 10% dimethyl sulphoxide. […]
# CT26 tumours = experiment: CT26 tumour model, prophylactic vaccination (Example 10); type: in vivo, BALB/c mice; conditions: 100 μg peptide + 30 μg CpG in Montanide, 7 days prior to tumour challenge
# Protocol: BALB/c mice were prophylactically vaccinated with a mouse IDO peptide IDO-EP2 ([…]; SEQ ID NO: 34) and challenged with CT26 tumours 7 days later. The efficacy of the peptide vaccine was assessed by tumour burden. The mouse IDO peptide sequence (IDO-Pep1) was selected to provide a murine analog for the human IDO peptides tested in the earlier Examples, because the sequence of murine IDOL differs to that of human IDO1.
# 6-10 week-old BALB/c mice were immunized by subcutaneous injection at the base of the tail of 100 μg peptide IDO-EP2+30 μg CpG in 100 μL, Montanide adjuvant [Montanide ISA 51 VG (Seppic)] prepared as a 1:1 emulsification. Immunizations were carried out 7 days prior to tumour challenge. For CT26 tumour cell engraftment, each mouse received two subcutaneous injections (one on each flank) of 1×10^5 CT26 in 100 μL serum free DMEM. Caliper measurements of tumour length and width were recorded every 3-4 days beginning at day 6. Tumour volume was calculated using the formula 0.52(L×W^2). Mice were euthanized when the combined tumour volume reached the defined endpoint of approximately 2,000 mm^3.
compound,measurement,setting,value
"Cn1cc(C[C@H](N)C(=O)O)c2ccccc21 [1-MT, 1-methyltryptophan]",Therapeutic efficacy (survival),TC-1 tumour,modest therapeutic efficacy
"DTLLKALLEIASCLEKALQVF (listed as Homo sapiens) [IO102, 21 amino acid peptide, residues 194-214 of indoleamine 2,3-dioxygenase]",Allogenic killing (lysis) of THP-1 cells by PBMCs,THP-1 cells [1],enhanced the allogenic killing of the THP-1 cells
same,Allogenic killing of THP-1 cells compared to control peptide IDO scrambled,"THP-1 cells [2]; day 23, E/T ratios 2:1-60:1",enhanced the allogenic killing of the THP-1 cells
same,Lysis of THP-1 cells compared to IDO5 peptide,"THP-1 cells [2]; day 23, low E/T ratios",more efficient lysis of THP-1 cells
same,Pre-treatment IFN-γ ELISpot responses towards IO102,PBMC,none of the patients had detectable pre-treatment responses
same,Fraction of CMV-specific T cells,CMV-specific CD8 T cells,larger fraction of CMV-specific T cells compared to adding IDO5/IO101
same,Cytokine-positive T cells upon stimulation with IO102,[3],"enrichment of cytokine-positive T cells was demonstrated, primarily CD4+"
LPTLSTDGL (listed as Homo sapiens) [IDO-EP2],Anti-tumour effect (tumour volume),CT26 tumours,anti-tumour protective effect

# Reference: patent US20220257741A1, “COMBINATION THERAPY FOR CANCER” (IO Biotech ApS, priority 2016, published 2022)
